According to patent publication US20080176914A1, “CRYSTAL FORM OF 2-(3-FLUORO-4-HYDROXYPHENYL)-7-VINYL-1,3-BENZOXAZOL-5-OL” (WYETH, priority 2006, published 2008):

Test: Conversion of the crystal form on suspending and stirring in solvent at room temperature
Type: physicochemical
Excerpt: The anhydrate crystal form (Form B) can be converted to other crystal forms under suitable conditions.

C=Cc1cc(O)cc2nc(-c3ccc(O)c(F)c3)oc12 [Form B, 2-(3-fluoro-4-hydroxyphenyl)-7-vinyl-1,3-benzoxazol-5-ol]
crystal form obtained after suspending and stirring in ethanol (suspended and stirred in ethanol at room temperature for three days): another anhydrate crystal form is obtained
crystal form obtained after suspending and stirring in methanol (suspended and stirred in methanol at room temperature for one day): another anhydrate crystal form is obtained
crystal form obtained after suspending and stirring in water (suspended and stirred in water at room temperature for three days): a hydrate crystal form is obtained
